Test system: S. aureus RN4220
Assay: Minimal bactericidal concentration (MBC) determination, CFU/mL
Assay type: cell-based, Staphylococcus aureus
Conditions: 24 h static incubation
Procedure: To determine the minimal bactericidal concentration of the substances, bacterial cultures were prepared as in the bacterial growth inhibition assay but incubated statically at 37 °C. A serial dilution of the initial culture was made and plated on a TSB agar plate to determine the CFU/mL of the original culture. After 24 h, the cultures were diluted again and plated. Bacterial colonies were counted, and the CFU/mL was calculated. The experiment was performed in n = 3 biological replicates. Data evaluation was done using GraphPad Prism. One-way ANOVA with Dunnett’s multiple comparisons test was used for statistical analysis, and all samples were compared to the starting CFU/mL.

Row | Compound | concentration from which growth (CFU/mL) is affected | effect on CFU/mL after 24 h (MBC determination)
1 | O=C(/N=C(\NCCn1cc(-c2c[nH]c3nc[nH]c(=O)c23)nn1)NC(=O)OCc1ccccc1)OCc1ccccc1 [Compound 8f] | 12.5 µM | bacteria were not killed completely
2 | CC(C)(C)OC(=O)/N=C(\NCCn1cc(-c2c[nH]c3nc[nH]c(=O)c23)nn1)NC(=O)OC(C)(C)C [Compound 8g] | – | cell growth is not negatively affected

Reference: paper PMC12751012, “Nanoscale Direct-to-Biology Optimization and Structural Insights into Selective S. aureus TrmD Inhibitors” (Journal of Medicinal Chemistry, 2025)
